The text below walks through data of patent publication US7312188B2, “Peptide derivatives having β-secretase inhibitory activity” (priority 2003, dated 2007).

The experiment deals with T1, recombinant human BACE-1 (rhBACE-1) (Homo sapiens, UniProt P56817).
T1 construct: expressed as only an extracellular region (amino acid 1-460 residues) of recombinant human β-secretase; His tag (C); purchased R&D systems (Minneapolis, Minn.); host or cells: murine myeloma cell line NS0
The experiment is described as follows: BACE1 inhibitory activity, reverse phase HPLC quantitation of N-terminal fragment of fluorogenic substrate. It is filed as biochemical. The following applies: 1 μL of inhibitor solution in DMSO (100 μM) in 50 μL reaction; MES buffer pH 5.0; 37° C., 60 minutes. In outline:
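rhBACE-1 ectodomain (residues 1-460, C-terminal His tag, NS0-expressed) in MES buffer pH 5.0 with inhibitor (diluted in DMSO, 100 μM solution) and MCA/DNP fluorogenic peptide (250 μM stock), 60 min at 37 °C, TCA stop. N-terminal fragment quantified by reverse-phase HPLC fluorescence (Ex 328/Em 393 nm); inhibition % derived.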

Numbered stars: 1 amine (or outer) side, 2 acyl side, 3 side chain; on linkers, the order of the positions; unused ones are H or OH. Square brackets hold non-standard residues; d marks the D form. Peptide text beside a SMILES is read from it. * marks the point of attachment. β3hPhe(2R-OH) = O=C([C@H](O)[C@H](Cc1ccccc1)N[*:1])[*:2]; X2 = O=C([C@H](O)[C@H](CSc1ccccc1)N[*:1])[*:2]; Benzoyl(3-COOH) = O=C(O)c1cccc(C(=O)*)c1; Oxalyl = O=C(C(=O)[*:2])[*:1]; 3Abz = Nc1cccc(C(=O)O)c1; Dap = NC[C@H](N)C(=O)O

T1 sequence (P56817 22-460 limits assumed): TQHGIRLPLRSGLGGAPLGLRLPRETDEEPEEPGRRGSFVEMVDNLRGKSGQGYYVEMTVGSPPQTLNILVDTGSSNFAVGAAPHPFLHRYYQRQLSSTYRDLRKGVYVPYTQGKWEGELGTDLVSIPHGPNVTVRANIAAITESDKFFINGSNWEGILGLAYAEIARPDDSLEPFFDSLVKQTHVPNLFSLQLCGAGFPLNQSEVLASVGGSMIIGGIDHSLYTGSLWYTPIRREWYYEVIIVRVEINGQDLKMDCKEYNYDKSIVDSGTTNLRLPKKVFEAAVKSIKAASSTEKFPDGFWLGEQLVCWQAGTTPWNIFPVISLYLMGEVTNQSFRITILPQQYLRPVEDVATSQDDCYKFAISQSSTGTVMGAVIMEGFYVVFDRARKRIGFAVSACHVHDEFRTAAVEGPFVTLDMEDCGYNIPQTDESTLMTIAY

Regarding `CC(C)C[C@H](NC(=O)[C@@H](NC(=O)[C@@H](N)CNC(=O)C(=O)O)C(C)C)C(=O)N[C@@H](Cc1ccccc1)[C@@H](O)C(=O)N[C@@H](CC(=O)O)C(=O)Nc1cccc(C(=O)O)c1` [Example 70] (H-[Dap](Oxalyl)VL[β3hPhe(2R-OH)]D[3Abz]-OH), the inhibition at 2 µM was 98.3%.
Same read-out and setting: to `CC(C)C[C@H](NC(=O)[C@@H](NC(=O)[C@@H](N)CNC(=O)c1cccc(C(=O)O)c1)C(C)C)C(=O)N[C@@H](Cc1ccccc1)[C@@H](O)C(=O)N[C@@H](CC(=O)O)C(=O)N[C@@H](C)C(=O)N[C@@H](CCC(=O)O)C(=O)O` [Example 84] (H-[Dap](Benzoyl(3-COOH))VL[β3hPhe(2R-OH)]DAE-OH) belongs 79.1%.
Still for that read-out and setting: to `CC(C)[C@H](NC(=O)[C@@H](N)CNC(=O)c1nnn[nH]1)C(=O)N[C@@H](CC1CCCCC1)C(=O)N[C@@H](Cc1ccccc1)[C@@H](O)C(=O)Nc1cc(C(=O)O)cc(C(=O)O)c1` [Example 135] belongs 99.8%; to `CC(C)C[C@H](NC(=O)[C@@H](NC(=O)[C@H](CN)NC(=O)C(=O)O)C(C)C)C(=O)N[C@@H](Cc1ccccc1)[C@@H](O)C(=O)N[C@@H](CC(=O)O)C(=O)N[C@@H](C)C(=O)N[C@@H](CCC(=O)O)C(=O)O` [Example 85] (Oxalyl-[Dap]VL[β3hPhe(2R-OH)]DAE-OH), 75.2%; to `CCOC(=O)C(=O)NC[C@H](N)C(=O)N[C@H](C(=O)N[C@@H](CC(C)C)C(=O)N[C@@H](Cc1ccccc1)[C@@H](O)C(=O)Nc1cc(C(=O)OC)cc(C(=O)OC)c1)C(C)C` [Example 104], 54.4%.
As for “H-Glu-Val-Leu-Pns-Asp-Ala-Glu-OH [Example 32]”, the “Activity (BACE1 inhibition %)” value worked out at 71.60%.
For the compound `CC(C)C[C@H](NC(=O)[C@@H](NC(=O)[C@@H](N)CNC(=O)c1cc(O)cc(O)c1)C(C)C)C(=O)N[C@@H](Cc1ccccc1)[C@@H](O)C(=O)Nc1cccc(C(=O)O)c1` [Example 148], the inhibition at 100 µM (stock) is 93.8%.
With “β-ODap-Val-Leu-Pns-Asp-Ala-Gly-Phe-OH ({β‑ODap}-VL[β3hPhe(2R-OH)]DAGF-OH) [Example 63]”, the “Activity (BACE1 inhibition %)” value is 96.66%.
“H-Glu-Val-Leu-Pns-Ala-Glu-Glu-Phe-OH (H-EVL[β3hPhe(2R-OH)]AEEF-OH; SMILES CC(C)C[C@H](NC(=O)[C@@H](NC(=O)[C@@H](N)CCC(=O)O)C(C)C)C(=O)N[C@@H](Cc1ccccc1)[C@@H](O)C(=O)N[C@@H](C)C(=O)N[C@@H](CCC(=O)O)C(=O)N[C@@H](CCC(=O)O)C(=O)N[C@@H](Cc1ccccc1)C(=O)O) [Example 27]”: the “Activity (BACE1 inhibition %)” value was 78.43%.
With “H-Glu-Val-Leu-Pns-Asp-Gly-Glu-Phe-OH (H-EVL[β3hPhe(2R-OH)]DGEF-OH; SMILES CC(C)C[C@H](NC(=O)[C@@H](NC(=O)[C@@H](N)CCC(=O)O)C(C)C)C(=O)N[C@@H](Cc1ccccc1)[C@@H](O)C(=O)N[C@@H](CC(=O)O)C(=O)NCC(=O)N[C@@H](CCC(=O)O)C(=O)N[C@@H](Cc1ccccc1)C(=O)O) [Example 43]”, the “Activity (BACE1 inhibition %)” value is 81.23%.
As for `CC(C)C[C@H](NC(=O)[C@@H](NC(=O)[C@@H](N)CCC(=O)O)C(C)C)C(=O)N[C@@H](CSc1ccccc1)[C@@H](O)C(=O)N[C@@H](CC(=O)O)C(=O)N[C@@H](C)C(=O)N[C@@H](CCC(=O)O)C(=O)N[C@@H](Cc1ccccc1)C(=O)O` [Example 82] (H-EVL[X2]DAEF-OH), the inhibition at 2 µM was determined as 81.8%.
“H-Glu-Val-Leu-Pns-Asp-Ala-Glu-Phe-OH (H-EVL[β3hPhe(2R-OH)]DAEF-OH; SMILES CC(C)C[C@H](NC(=O)[C@@H](NC(=O)[C@@H](N)CCC(=O)O)C(C)C)C(=O)N[C@@H](Cc1ccccc1)[C@@H](O)C(=O)N[C@@H](CC(=O)O)C(=O)N[C@@H](C)C(=O)N[C@@H](CCC(=O)O)C(=O)N[C@@H](Cc1ccccc1)C(=O)O) [Example 7]”: the “Activity (BACE1 inhibition %)” value came out at 89.65%.
For the compound `CC(C)C[C@H](NC(=O)[C@@H](NC(=O)[C@@H](N)CCC(=O)O)C(C)C)C(=O)N[C@@H](Cc1ccccc1)[C@@H](O)C(=O)Nc1cccc(O)c1` [Example 130], the inhibition at 2 µM came to 57.2%.

One may read the inhibition as the change of the read-out against control, counted positive when it falls.
